Measured values taken from patent US11925630B1, “6′-(2-bromophenyl)-2′-methoxy-3,4′-bipyridine-3′-carbonitrile as an antioxidant compound” (KING FAISAL UNIVERSITY, priority 2023, dated 2024).

Assay: DPPH radical scavenging antioxidant test
Format: biochemical
Settings: 517 nm; for Inhibition (radical scavenging inhibition): 0.2 mL DPPH (0.75 mM), compound 3 μM in ethanol, 30 minutes in the dark
Procedure: The antioxidant activity of 6′-(2-bromophenyl)-2′-methoxy-3,4′-bipyridine-3′-carbonitrile was investigated by 2,2-diphenyl-1-picrylhydrazyl (DPPH) in vitro tests that employ vitamin C as the positive control.
The antioxidant properties of the 6′-(2-bromophenyl)-2′-methoxy-3,4′-bipyridine-3′-carbonitrile compound were studied by adding 0.2 mL DPPH (0.75 mM)) to 6′-(2-bromophenyl)-2′-methoxy-3,4′-bipyridine-3′-carbonitrile (3 μM) (4) in ethanol. After 30 minutes of incubation in the dark, the absorbance was read against a blank at 517 nm. Ascorbic acid (vitamin C) was used as standard antioxidants (positive control). A blank sample was prepared by 0.2 mL of DPPH in 3 mL ethanol. A negative control sample was run using ethanol instead of the sample. The radical scavenging inhibition was calculated using the following equation: […]
The antioxidant activity for the synthesized compound is listed in Table 1, using Vitamin C as a reference.

| Compound | Inhibition (radical scavenging inhibition) | antioxidant potential compared to vitamin C (in words) (DPPH in vitro test, vitamin C as positive control) |
| --- | --- | --- |
| COc1nc(-c2ccccc2Br)cc(-c2cccnc2)c1C#N [Product 4, 6′-(2-bromophenyl)-2′-methoxy-3,4′-bipyridine-3′-carbonitrile] | 50% | high potential as an antioxidant |
| O=C1O[C@H]([C@@H](O)CO)C(O)=C1O [vit c, Ascorbic acid, reference compound] | 74% |  |
